Assays:
Plasmodium berghei ANKA = assay: Inhibition of EEF development in Huh-7 human hepatoma cells infected with sporozoites (immunofluorescence microscopy); format: cell-based; conditions: compound at 8 μM, 1.6 μM, 320 nM, 64 nM, 1 h before infection with 10,000 sporozoites per well
Text: To model this infection, the inventors have developed an assay monitoring infection and maturation of Plasmodium berghei ANKA, a mouse-pathogenic close relative of the human-pathogenic Plasmodium falciparum strain, in cultured human hepatoma cells. Huh human hepatoma cells, were cultivated in RPMI (Gibco/Invitrogen) medium containing 10% FBS, 1% non-essential amino acid solution (Gibco/Invitrogen), 1% penicillin/streptomycin solution (Gibco/Invitrogen), 1% glutamine (Gibco/Invitrogen) and 1% Hepes pH 8 (Gibco/Invitrogen). 4000-6000 cells per well were seeded in a volume of 100 μl/well. Sporozoites were obtained from Anopheles stephensi mosquitoes infected with P. berghei ANKA or P. yoelii. Salivary glands were dissected and collected in RPMI medium (GIBCO) on ice. Collected tissues were gently ground in the medium to release sporozoites. Tissue fragments were removed by centrifugation at 40×g for 3 min, and sporozoites were collected from the supernatant. Blt-1, Blt-2, and Blt-4 were purchased from ChemBridge Corporation (San Diego, USA). Ezetimibe (for chemical structure see FIG. 6 and structure (XXVI)) was derived from powdered Ezeterol tablets (Essex Pharma, UK). Each compound was dissolved in DMSO at a final concentration of 50 mM. 48 hours after seeding of 6000 Huh-7 cells per well, growth medium was replaced by fresh complete culture medium, containing the compounds in 4 different concentrations, generated by dilution series of the compound stock solutions in complete growth medium: 8 μM; 1.6 μM; 320 nM; 64 nM. […] Cells were imaged using a fully automated fluorescence microscope from MDC (Molecular Devices Corporation, CA, USA). […] Numerical readouts comprised of cell proliferation as measured by the number of nuclei per imaged field (Hoechst staining), cell confluency as measured by the percentage of the imaged field covered by cells (actin/Phalloidin staining), and number of EEFs per imaged field. […] Objects in a size range of 16-150 pixels were quantified. […]

P. berghei ANKA = assay: Liver infection in mice, parasite 18S RNA by Real-Time PCR; format: in vivo, Plasmodium berghei; conditions: C57Bl/6 mice
Protocol: Ezeterol tablets were used to prepare a 0.3 mg/ml solution of Ezetimibe in water. Experimental C5781/6 mice were treated by oral gavage with 200 μl of Ezetimibe solution (3 mg/kg) 2 hours prior to infection with sporozoites. To control mice, 200 μl of water were administered by oral gavage. Infection with Plasmodium berghei was performed by i.v. injection of 30 000 sporozoites (see FIG. 5). For BLT-1 treatment of C57Bl/6 mice (male, 6-8 weeks old), intra-peritoneal injections of 50 mg/kg of BLT-1 in DMSO were carried out prior to infection. Control mice were treated with DMSO only. Two hours later, mice were infected by intravenous injection with 3×10^4 P. berghei sporozoites (see FIG. 12).
Mice were sacrificed 40-42 hours after infection and their livers collected. Livers were placed in 4 ml cold lysis buffer (4 M guanidine thio-cyanate, 25 mM sodium citrate, pH 7.0 and 0.5% sarcosyl) and homogenised on ice with a tissue tearer. 1 ml aliquots of liver homogenate were kept at −80° C. until RNA extraction. Total RNA was extracted from 50 μl of liver homogenate with Qiagen's RNeasy RNA extraction kit following the instructions of the manufacturer. […]
P. berghei ANKA load and ScarB1 expression in the liver was quantified by Real-Time PCR using the SYBR Green Mix (Applied Biosystems) and primers designed for the 18S RNA of the parasite and primers for ScarB1. […]

P. yoelii = P. yoelii EEF development in Hepa 1-6 cells; format: cell-based, Plasmodium yoelii; conditions: 10 μM; full 24 hours of infection, first 2 hours only, or 2 hours after infection until 24 hours
Protocol: Hepa 1-6 cells were cultured in complete DMEM medium (Gibco/Invitrogen) supplemented with 10% fetal calf serum (Gibco/Invitrogen) and 1% penicillin/streptomycin (Gibco/Invitrogen) incubated at 37° C. and 5% CO2. Sporozoites were obtained from Anopheles stephensi mosquitoes infected with P. berghei ANKA or P. yoelii. Salivary glands were dissected and collected in RPMI medium (GIBCO) on ice. Collected tissues were gently ground in the medium to release sporozoites. Tissue fragments were removed by centrifugation at 40×g for 3 min, and sporozoites were collected from the supernatant. Cells were treated with 10 μM BLT-1 for different time points: for the full 24 hours of infection with P. yoelii (1×10^5 sporozoites), only during the first 2 hours of infection, or for the time of 2 hours after infection until evaluation of infection at 24 hours (see FIG. 15).

P. berghei = assay: EEF development in mouse primary hepatocytes infected with P. berghei sporozoites; format: cell-based, Plasmodium berghei; conditions: 10 μM; full 24 hours of infection, first 2 hours only, or 2 hours after infection until 24 hours
Protocol: C57B1/6 freshly isolated mouse primary hepatocytes (1×10^5 cells per well) were seeded in 700 μl of Williams E medium supplemented with 1× glutamax (Gibco/Invitrogen), 4% fetal calf serum (Gibco/Invitrogen) and 1% penicillin/streptomycin (Gibco/Invitrogen) in 24 well plates incubated at 37° C. 5% CO2. After two days cells were treated with 10 μM BLT-1 for different time points: for the full 24 hours of infection with P. berghei (5×10^5 sporozoites), only during the first 2 hours of infection, or for the time of 2 hours after infection until evaluation at 24 hours. (see FIG. 14)

Structure (SMILES)	EEF (Exo-Erythrocytic Forms) development, EEF number (Plasmodium berghei ANKA)	infection rate for liver in mice (P. berghei ANKA; 3 mg/kg oral gavage 2 hours prior to i.v. infection with 30 000 sporozoites, livers 40-42 hours after infection)	P. Yoelii EEF development in Hepa 1-6 cells (P. yoelii)	infection rate for liver in mice (P. berghei ANKA; 50 mg/kg intra-peritoneal in DMSO two hours before i.v. infection with 3×10^4 P. berghei sporozoites)	EEF development in Mouse Primary Hepatocytes (P. berghei)
O=C1[C@H](CC[C@H](O)c2ccc(F)cc2)[C@@H](c2ccc(O)cc2)N1c1ccc(F)cc1 [Ezetimibe]	Inhibition of EEF development	reduces infection rate for liver			
CCCCCCC1CCC/C1=N\NC(N)=S (stereo not shown) [BLT-1]	Inhibition of EEF (Exo-Erythrocytic Forms) development		Inhibition of P. Yoelii EEF development	reduces infection rate for liver	Inhibition of EEF development
COc1ccccc1NC(=O)Nc1ccc2ccccc2c1 [BLT-4]	Inhibition of EEF development				

Reference: US8507546B2, “Use of inhibitors of scavenger receptor class proteins for the treatment of infectious diseases” (Instituto de Medicina Molecular, Faculdade de Medicina da …, priority 2006, dated 2013)
